Data reported in PubChem BioAssay AID2060483 (Molecular Pharmacology Branch, DTP, NCI, 2025).
pIC50: −log10 of the molar value.

Tested on: K24384-001-R-PDC complex spheroids, viability
Assay: Anticancer human tumor K24384-001-R-PDC patient-derived pancreatic adenocarcinoma cell line growth inhibition [GQUAD]
Conditions: for pIC50: curve of first compound; for viability, T/C: stronger effect = lower value
Description: DNA G-quadruplex Stabilizer Agents in Combinations in Complex Spheroids
A high-throughput screen of multi-cell type tumor spheroids was designed to identify active combinations of DNA G-quadruplex stabilizer agents and targeted small molecules. Complex spheroids include a stromal component modeled by human endothelial cells (HUVEC) and fibroblasts modeled by human mesenchymal stem cells (MSCs). The concentration ranges selected for each drug and investigational agent were based upon clinically achievable concentrations if the clinical Cmax of the agent was known.
Compounds. The drugs and investigational agents: pidnarulex (CX-5461; NSC782164), APTO-253 (NSC789042), BRACO-19 (NSC847499), peposertib (NSC802822), ceralasertib (NSC780249), elimusertib (NSC800525), camonsertib (NSC841442), AZD-1390 (NSC803789), olaparib (NSC753686), talazoparib (NSC767125), ART-558 (NSC835418), sotorasib (NSC818433), MRTX-1133 (NSC836407), SN-38 (NSC673596), topotecan (NSC609699), etoposide (NSC141540), doxorubicin (NSC123127), gemcitabine (NSC613327), 5-fluorouracil (NSC19893), paclitaxel (NSC125973), vemurafenib (NSC761431), panobinostat (NSC761190), R-306465 (JNJ-16241199; NSC773264), adavosertib (NSC754352), TP-3654 (NSC805149), carboplatin (NSC241240), KSQ-4279 (NSC840948), and staurosporine (NSC755774) were obtained from the National Cancer Institute (NCI) Developmental Therapeutics Program Chemical Repository (34). The FDA-approved anticancer drug set is available from the NCI Developmental Therapeutics Program. […] The stock solutions were prepared in dimethyl sulfoxide (DMSO, Sigma-Aldrich, St. Louis, MO, cat. D2650) at 800-fold the tested concentration and stored at -70 degrees C prior to their use. All drugs and investigational agents were tested over a range starting from a high concentration at or near the clinical Cmax and decreasing in half-log increments. If the clinical Cmax for an agent had not been determined, the highest concentration tested was 10 microM.
2.3 Cell Culture. All cells were maintained in an incubator at 37 degrees C and 5% CO2 with 95% humidity. The PDC lines were cultured according to standard operating procedures established by the NCI PDMR. All PDCs were thawed and cultured in Matrigel-coated flasks prepared with a working solution of 1X Ham's F-12 nutrient mix, without supplementation (Invitrogen, cat. 11765054), 100 U/mL penicillin-streptomycin (Invitrogen, cat. 15140122), and 2.5% Matrigel (Corning Inc., cat. 354248) for the first three passages. The 857933-349-R-J2-PDC line was cultured in 6C/Colon 1B media, which includes advanced DMEM/F-12 (Thermo Fisher Scientific, cat. 12634028), 10 mM HEPES (Thermo Fisher Scientific, cat. 15630080), 1X GlutaMAX supplement (Thermo Fisher Scientific, cat. 35050061), 0.1 mg/mL primocin (InvivoGen, cat. ant-pm-2), 10% defined fetal bovine serum, heat inactivated (HyClone Laboratories Inc., cat. SH30070.03HI), 50% L-WRN conditioned media (ATCC, cat. CRL-3276), 1.25 mM N-Acetyl-L-cysteine (Sigma-Aldrich, cat. A9165), 10 mM nicotinamide (Sigma-Aldrich, cat. N0636), 1X B-27 supplement (Thermo Fisher Scientific, cat. 17504044), 1X N-2 supplement (Thermo Fisher Scientific, cat. 17502048), 10 microM Y-27632 dihydrochloride (Tocris Bioscience, cat. 1254), and 50 ng/mL human EGF recombinant protein (Thermo Fisher Scientific, cat. PHG0311). The 485176-168-R4-J1-PDC line was cultured in Panc media, which includes all 6C/Colon 1B media components plus 100 ng/mL human FGF-10 (Thermo Fisher Scientific, cat. 100-26), 500 nM SB-431542 (Selleckchem, cat. S1067), and gastrin (Tocris, cat. 3006).
[…]

[1] = second compound 0.0316 µM, first compound 0.0316 µM
[2] = second compound 0.0316 µM, first compound 0.316 µM
[3] = second compound 0.1 µM, first compound 0.0316 µM
[4] = second compound 0.1 µM, first compound 0.316 µM
[5] = second compound 0.316 µM, first compound 0.0316 µM
[6] = second compound 0.316 µM, first compound 0.316 µM
[7] = second compound 1 µM, first compound 0.0316 µM
[8] = second compound 1 µM, first compound 0.316 µM
[9] = second compound 3.16 µM, first compound 0.0316 µM
[10] = second compound 3.16 µM, first compound 0.316 µM
[11] = second compound 10 µM, first compound 0.0316 µM
[12] = second compound 10 µM, first compound 0.316 µM
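Also: spheroids exposed to compounds for seven days.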

## CCc1c2c(nc3ccc(O)cc13)-c1cc3c(c(=O)n1C2)COC(=O)[C@]3(O)CC + CN(C)c1ccc(Nc2c3ccc(NC(=O)CCN4CCCC4)cc3nc3cc(NC(=O)CCN4CCCC4)ccc23)cc1
Second compound 0.0316 µM
  pIC50: 8.13
Second compound 0.1 µM
  pIC50: 8.05
Second compound 0.316 µM
  pIC50: 8.25
Second compound 1 µM
  pIC50: 8.25
Second compound 3.16 µM
  pIC50: 8.46
Second compound 10 µM
  pIC50: 7.79
Second compound 0.0316 µM, first compound 0.000999 µM
  viability, T/C: 80.2%
Second compound 0.0316 µM, first compound 0.00316 µM
  viability, T/C: 78.2%
Second compound 0.0316 µM, first compound 0.00999 µM
  viability, T/C: 39.6%
[1]
  viability, T/C: 32.2%
Second compound 0.0316 µM, first compound 0.0999 µM
  viability, T/C: 35.4%
[2]
  viability, T/C: 30.3%
Second compound 0.1 µM, first compound 0.000999 µM
  viability, T/C: 69.6%
Second compound 0.1 µM, first compound 0.00316 µM
  viability, T/C: 62.7%
Second compound 0.1 µM, first compound 0.00999 µM
  viability, T/C: 49.7%
[3]
  viability, T/C: 34.2%
Second compound 0.1 µM, first compound 0.0999 µM
  viability, T/C: 36.1%
[4]
  viability, T/C: 32.3%
Second compound 0.316 µM, first compound 0.000999 µM
  viability, T/C: 73.2%
Second compound 0.316 µM, first compound 0.00316 µM
  viability, T/C: 65.2%
Second compound 0.316 µM, first compound 0.00999 µM
  viability, T/C: 35.2%
[5]
  viability, T/C: 42.8%
Second compound 0.316 µM, first compound 0.0999 µM
  viability, T/C: 33.6%
[6]
  viability, T/C: 26.3%
Second compound 1 µM, first compound 0.000999 µM
  viability, T/C: 69.8%
Second compound 1 µM, first compound 0.00316 µM
  viability, T/C: 58.2%
Second compound 1 µM, first compound 0.00999 µM
  viability, T/C: 39.9%
[7]
  viability, T/C: 39.9%
Second compound 1 µM, first compound 0.0999 µM
  viability, T/C: 28.6%
[8]
  viability, T/C: 28%
Second compound 3.16 µM, first compound 0.000999 µM
  viability, T/C: 82.3%
Second compound 3.16 µM, first compound 0.00316 µM
  viability, T/C: 51.2%
Second compound 3.16 µM, first compound 0.00999 µM
  viability, T/C: 37%
[9]
  viability, T/C: 37.5%
Second compound 3.16 µM, first compound 0.0999 µM
  viability, T/C: 34%
[10]
  viability, T/C: 30.9%
Second compound 10 µM, first compound 0.000999 µM
  viability, T/C: 70.7%
Second compound 10 µM, first compound 0.00316 µM
  viability, T/C: 61.2%
Second compound 10 µM, first compound 0.00999 µM
  viability, T/C: 59.4%
[11]
  viability, T/C: 37.3%
Second compound 10 µM, first compound 0.0999 µM
  viability, T/C: 36.6%
[12]
  viability, T/C: 32.8%

## Cc1cccc(N(C)C(=O)C2C(O)CCN2c2nc(C)cc(C(F)(F)F)c2C#N)c1 (centres undefined) + CN(C)c1ccc(Nc2c3ccc(NC(=O)CCN4CCCC4)cc3nc3cc(NC(=O)CCN4CCCC4)ccc23)cc1
Second compound 0.0316 µM
  pIC50: < 5.00
Second compound 0.1 µM
  pIC50: < 5.00
Second compound 0.316 µM
  pIC50: < 5.00
Second compound 1 µM
  pIC50: < 5.00
Second compound 3.16 µM
  pIC50: < 5.00
Second compound 10 µM
  pIC50: 5.52
[1]
  viability, T/C: 95.3%
Second compound 0.0316 µM, first compound 0.1 µM
  viability, T/C: 87.9%
[2]
  viability, T/C: 91.3%
Second compound 0.0316 µM, first compound 1 µM
  viability, T/C: 90.6%
Second compound 0.0316 µM, first compound 3.16 µM
  viability, T/C: 109%
Second compound 0.0316 µM, first compound 10 µM
  viability, T/C: 111%
[3]
  viability, T/C: 101%
Second compound 0.1 µM, first compound 0.1 µM
  viability, T/C: 110%
[4]
  viability, T/C: 106%
Second compound 0.1 µM, first compound 1 µM
  viability, T/C: 102%
Second compound 0.1 µM, first compound 3.16 µM
  viability, T/C: 100%
Second compound 0.1 µM, first compound 10 µM
  viability, T/C: 97.6%
[5]
  viability, T/C: 90.2%
Second compound 0.316 µM, first compound 0.1 µM
  viability, T/C: 81.9%
[6]
  viability, T/C: 85.4%
Second compound 0.316 µM, first compound 1 µM
  viability, T/C: 87.7%
Second compound 0.316 µM, first compound 3.16 µM
  viability, T/C: 102%
Second compound 0.316 µM, first compound 10 µM
  viability, T/C: 95.3%
[7]
  viability, T/C: 98%
Second compound 1 µM, first compound 0.1 µM
  viability, T/C: 83.6%
[8]
  viability, T/C: 94.7%
Second compound 1 µM, first compound 1 µM
  viability, T/C: 107%
Second compound 1 µM, first compound 3.16 µM
  viability, T/C: 91.8%
Second compound 1 µM, first compound 10 µM
  viability, T/C: 94.3%
[9]
  viability, T/C: 93%
Second compound 3.16 µM, first compound 0.1 µM
  viability, T/C: 86.2%
[10]
  viability, T/C: 80.4%
Second compound 3.16 µM, first compound 1 µM
  viability, T/C: 104%
Second compound 3.16 µM, first compound 3.16 µM
  viability, T/C: 117%
Second compound 3.16 µM, first compound 10 µM
  viability, T/C: 74.4%
[11]
  viability, T/C: 89.7%
Second compound 10 µM, first compound 0.1 µM
  viability, T/C: 79.8%
[12]
  viability, T/C: 76.2%
Second compound 10 µM, first compound 1 µM
  viability, T/C: 61.8%
Second compound 10 µM, first compound 3.16 µM
  viability, T/C: 51.1%
Second compound 10 µM, first compound 10 µM
  viability, T/C: 31.9%
